From patent publication US5688830A, “Treatment of neuropathic pain” (Syntex (U.S.A.) Inc., priority 1997, dated 1997)

Assays:
[1] = Metabolism to Formula II / plasma levels of Formula II after oral administration; assay type: in vivo
[2] = system: voltage-gated sodium channels ([3H]BTX binding, rat cortex); assay: [3H]BTX binding assay, rat cortex membranes
Procedure: The following assays characterize the interaction of the compounds of Formula I with ligand binding sites on voltage-gated sodium channels.
Frozen tissues were obtained from Pel-Freez Biologicals (Rogers, AR). Tissues were homogenized in 10 volumes of a Tris-sucrose buffer (10 mM Tris-HCl, 250 mM sucrose, pH 7.4 at 4° C.) using 10 strokes with a glass-glass, hand-held homogenizer. The homogenates were filtered through nylon mesh and then centrifuged at 1,000×g for 15 minutes. The pellets were resuspended in a Hepes buffer (50 mM Hepes, 130 mM choline chloride, 5 mM glucose, 5.4 mM KCl, pH 7.4 at 4° C.). The resuspended pellets were centrifuged at 1,000×g for 15 minutes, resuspended in a Hepes buffer (50 mM Hepes, 130 mM choline chloride, 5 mM glucose, 5.4 mM KCl, pH 7.4 at 25° C.) and, frozen at -70° C. until used in binding assays.
Nonspecific binding was defined in the presence of 1 mM veratridine. Unless otherwise specified, PbTx (0.1 μM) and LqTx (50 μg/ml) were included in the assays. Membranes were incubated for 60 minutes at 25° C. and then filtered using GF/B glass fiber filters that had been pretreated with 0.3% PEI. Filters were rinsed with 3×1 ml of ice cold 50 mM Tris-HCl (pH 7.4 at 4° C.) and the bound radioactivity was determined by scintillation counting (Packard Top-count).

[3] = system: mechanical allodynia in rats; assay: Mechanical allodynia in vivo assay (spinal nerve ligation); parameters: species or system rat
Procedure: This assay determines the effectiveness of compounds in relieving one of the symptoms of neuropathic pain produced by spinal nerve ligation, namely mechanical allodynia. The surgical procedure was performed essentially as described by Kim and Chung, Pain, (1992) 50:355-363. Briefly, the rats were anesthetized with an intraperitoneal dose of pentobarbital sodium (65 mg/kg) with additional doses of anesthetic given as needed. Each animal was then placed in a prone position, a 3 cm lateral incision was made, and the left paraspinal muscles separated from the spinous process at the L4 -S2 level. The L6 transverse process was then removed in order to visually identify the L4 -L6 spinal nerves. The L5 and L6 spinal nerves were then individually isolated and tightly ligated with silk thread. The wound was then closed in layers by silk sutures. Seven to 28 days post-surgery, a calibrated series of eight von Frey filaments were used to assess mechanical allodynia. Animals were housed individually in plexiglass cages with a wire mesh floor. Filaments of increasing stiffness were applied perpendicular to the midplantar surface in the sciatic nerve distribution areas of the left hindpaw and were slowly depressed (4-6 seconds) until bending occurred. The filament application order and number of trials were determined by the up-down method of Dixon (Chaplan, et al., J. Neurosci. Methods, (1994) 53:55-63). Flinching and licking of the paw and paw withdrawal on the ligated side were all considered positive responses. The 50% paw withdrawal threshold (g) was then calculated and compared to control. The doses for the acute and chronic studies were selected on the basis of prior assessment of the acute effects on the test compounds on the gross behavior in normal rats. Briefly, the rats were weighed and grouped into cages, dosed with the test compound, and observed continuously for changes in behavior. […] Pinna and corneal reflexes were tested by using a piece of natural hair from a brush that is attached to a glass rod. The righting reflexes were tested by placing the rat flat on its back, and recording the time it takes for the animal to right itself onto all four legs. The posture and gait were assessed by placing the rat on the floor.

cold allodynia in rats = assay: Cold allodynia in vivo assay (chronic constriction injury), chronic studies; parameters: species or system rat; settings: for anti-allodynia after chronic dosing: subcutaneous, 5 days of twice daily dosing
Procedure: This assay determines the effectiveness of compounds in relieving one of the symptoms of neuropathic pain produced by unilateral mononeuropathy, namely cold allodynia. Unilateral mononeuropathy was produced in rats using the Chronic Constriction Injury model performed essentially as described by Bennet and Xie, Pain, (1988) 33:87-107. Briefly, the rats were anesthetized with an intraperitoneal dose of pentobarbital sodium (65 mg/kg) with additional doses of anesthetic given as needed. The lateral aspect of each rat's hind limb was shaved and scrubbed with Novasan. Using aseptic technique, an incision was made on the lateral aspect of the hind limb at the mid-thigh level. The biceps femoris was bluntly dissected to expose the sciatic nerve. On the right hind limb of each rat, four loosely tied ligatures were made around the sciatic nerve approximately 1-2 millimeters apart. On the left side of each rat, an identical dissection was performed except that the sciatic nerve was not ligated. The muscle was closed with a continuous suture pattern, and the skin was closed with wound clips. Each rat was placed individually into a plexiglass chamber with a metal plate 6 cm from the bottom. This chamber was filled with ice water to a depth of 2.5 cm above the metal plate, with the temperature of the bath maintained at 0° C. throughout the experiment. A timer was started, and the rat's response latency was measured to the nearest tenth of a second. A "response" was defined as a rapid withdrawal of the right ligated hindpaw completely out of the water while the animal was stationary and not pivoting. An exaggerated limp while the animal was walking was not scored as a response. Maximum immersion time was 20 seconds with a 20 minute interval between trials. The screening criteria were 1) the average of two trials was less than or equal to 13 seconds, and 2) there was consistency across the two trial scores. Animals were screened for hypersensitivity to cold on post-surgery days 4 through 10, and selected for inclusion in dose-response studies based on the criteria described above. The pre-dose screening values were used as the animal's baseline cold allodynia scores. For chronic studies, the animals received subcutaneous or oral injections twice daily for 4 days and once on day 5. The animals were tested for allodynia on day 1 at 1, 3 and 5 hours following the 8 am dose, and at 5 hours following the 8 am dose on days 3 and 5. Two days later, the animals were tested for cold allodynia to assess whether there was a wash-out of the drug being tested. Following this screening for cold allodynia, the animals in two of the three chronic studies received either subcutaneous or oral injections of the drug at a dose previously shown to produce significant anti-allodynic effects acutely. […]

[4] = mechanical allodynia, subcutaneous

Compound	plasma level of Formula II after oral (R)-enantiomer of Formula I, less than after acute administration of Formula II itself ([1]; oral administration, plasma)	potency of (R)- versus (S)-enantiomer in inhibiting [3H]BTX binding ([2]; rat brain cortex membranes)	maximal analgesic activity (Emax) [3, 4]	maximal analgesic activity, comparison ([3]; mechanical allodynia, subcutaneous, vs racemates of I, II and III)	analgesia against mechanical allodynia ([3]; oral administration)	anti-allodynic effect after chronic oral dosing (cold allodynia in rats; oral, chronic, (R)-enantiomer 10 and 20 mg/kg, sub-threshold)	anti-allodynia after chronic dosing (cold allodynia in rats)	metabolism to the compound of Formula II ([1]; oral, mammal)	potency in rat cortex greater than in rat heart or rat dorsal root ganglion ([2]; [3H]BTX binding, rat cortex vs rat heart or dorsal root ganglion)	inhibition of [3H]BTX binding ([2]; rat cortex membranes)	ED50 ([3]; Rattus norvegicus, sc, mechanical allodynia, subcutaneous)	EDmax [3, 4]	potency (ED50) comparison ([3]; mechanical allodynia, subcutaneous, in words)
CCN[C@H](C)COc1c(C)cccc1C [Formula I (R)-, (R)-[2-(2,6-dimethylphenoxy)-1-methylethyl]-ethylamine]	5-10 fold less	no difference in the potencies	98%	significantly greater maximal analgesic activity	did not produce analgesia	as robust an anti-allodynic effect as an acute dose of compound I that is 10 fold higher	significant levels of anti-allodynia	–	–	–	–	–	–
CCNC(C)COc1c(C)cccc1C (racemic) [Formula I racemate, [2-(2,6-dimethylphenoxy)-1-methylethyl]-ethylamine]	–	–	66%	–	–	–	significant levels of anti-allodynia	metabolized to some extent to the compound of Formula II	approximately 10 fold	inhibited	12.6 mg/kg	66%	considerably more potent (ED50) than II or III
